# Test results as given in BindingDB's records for doi:10.1021/acschembio.7b00653 (University of Konstanz, 2017).
# Biological target: T1, AP-4-A phosphorylase (Mycobacterium tuberculosis (strain ATCC 25618 / H37Rv), UniProt P9WMK9)
# T1 sequence (P9WMK9 whole entry): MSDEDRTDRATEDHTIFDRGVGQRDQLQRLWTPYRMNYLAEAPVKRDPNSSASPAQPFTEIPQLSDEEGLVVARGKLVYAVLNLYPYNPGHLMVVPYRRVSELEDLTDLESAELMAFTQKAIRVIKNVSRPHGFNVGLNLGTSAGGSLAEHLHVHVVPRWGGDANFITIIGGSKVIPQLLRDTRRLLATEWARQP
# Assay: FRET assay
# Conditions: pH 8
# Experimental: Dose response curves against Rv2613c with 1 as the substrate for derivatives 5 and 18. 8 nM of Rv2613c were preincubated in buffer (20 mM Tris-HCl (pH 8.0), 50 mM NaCl, 1 mM DTT, 0.2 mg/mL BSA, 5 mM NaH2PO4, 5 mM MgCl2) with indicated amounts of compound solved in DMSO at 25°C for 30 min. Substrate 1 (2 µM in Tris-HCl buffer pH 8.0) was added Measurement of the fluorescence at 570 nm was conducted every 3 min over 1 h. Turnover of probe 1 was calculated by normalization to the intensity of controls. The rate of probe 1 turnover was obtained by linear fitting of probe 1 turnover over time. % Inhibition was calculated relative to the controls. The IC50 was calculated by a non-linear curve fit/dose response curve in Origin.
row,SMILES,IC50
1,CS/C(Nc1cccc([N+](=O)[O-])c1)=C(/C#N)S(=O)(=O)c1ccccc1 [Synthesized Sulfanylacrylonitril Derivatives 15],1300 nM
2,N#C/C(=C(\Nc1cccc(C(F)(F)F)c1)SCc1ccccc1)S(=O)(=O)c1ccccc1 [Synthesized Sulfanylacrylonitril Derivatives 12],800 nM
3,CS/C(Nc1cccc(C)c1)=C(/C#N)S(=O)(=O)c1ccccc1 [Synthesized Sulfanylacrylonitril Derivatives 14],4620 nM
4,CCc1cccc(N/C(SC)=C(\C#N)S(=O)(=O)c2ccccc2)c1 [Synthesized Sulfanylacrylonitril Derivatives 18],570 nM
5,CCCc1cccc(N/C(SC)=C(\C#N)S(=O)(=O)c2ccccc2)c1 [Synthesized Sulfanylacrylonitril Derivatives 19],960 nM
6,CS/C(Nc1ccc(C(F)(F)F)cc1)=C(/C#N)S(=O)(=O)c1ccccc1 [Synthesized Sulfanylacrylonitril Derivatives 7],16300 nM
7,CS/C(Nc1cc(C)cc(C)c1)=C(/C#N)S(=O)(=O)c1ccccc1 [Synthesized Sulfanylacrylonitril Derivatives 22],> 100000 nM
8,COC(=O)c1cccc(N/C(SC)=C(\C#N)S(=O)(=O)c2ccccc2)c1 [Synthesized Sulfanylacrylonitril Derivatives 17],21800 nM
9,CS/C(Nc1cccc(C(C)C)c1)=C(/C#N)S(=O)(=O)c1ccccc1 [Synthesized Sulfanylacrylonitril Derivatives 20],1770 nM
10,CS/C(Nc1ccccc1)=C(/C#N)S(=O)(=O)c1ccccc1 [Synthesized Sulfanylacrylonitril Derivatives 3],> 30000 nM
11,COc1cccc(N/C(SC)=C(\C#N)S(=O)(=O)c2ccccc2)c1 [Synthesized Sulfanylacrylonitril Derivatives 21],11300 nM
12,CS/C(Nc1cc(C(F)(F)F)cc(C(F)(F)F)c1)=C(/C#N)S(=O)(=O)c1ccccc1 [Synthesized Sulfanylacrylonitril Derivatives 8],> 100000 nM
13,CS/C(Nc1ccccc1)=C(/C#N)S(=O)(=O)c1ccc(Cl)cc1 [Synthesized Sulfanylacrylonitril Derivatives 4],> 100000 nM
14,CCCS/C(Nc1cccc(C(F)(F)F)c1)=C(/C#N)S(=O)(=O)c1ccccc1 [Synthesized Sulfanylacrylonitril Derivatives 10],470 nM
15,CS/C(Nc1cccc(C#N)c1)=C(/C#N)S(=O)(=O)c1ccccc1 [Synthesized Sulfanylacrylonitril Derivatives 16],2510 nM
16,CC(C)S/C(Nc1cccc(C(F)(F)F)c1)=C(/C#N)S(=O)(=O)c1ccccc1 [Synthesized Sulfanylacrylonitril Derivatives 11],940 nM
17,CS/C(Nc1ccccc1C(F)(F)F)=C(/C#N)S(=O)(=O)c1ccccc1 [Synthesized Sulfanylacrylonitril Derivatives 6],> 100000 nM
18,CS/C(Nc1cccc(C(F)(F)F)c1)=C(/C#N)S(=O)(=O)c1ccccc1 [Synthesized Sulfanylacrylonitril Derivatives 5],120 nM
19,CS/C(Nc1cccc(C(F)(F)F)c1)=C(/C#N)S(=O)(=O)c1ccc(Cl)cc1 [Synthesized Sulfanylacrylonitril Derivatives 2],260 nM
